One experiment has as its target T1, GSPT1 (Homo sapiens, UniProt P15170+Q96SW2).
T1 construct: host or cells: HEK293 LgBiT cell line
The experiment is described as follows: GSPT1 HiBit degradation assay. The experiment is classed as cell-based. As to conditions: Table 3; HEK293 LgBiT cells expressing GSPT1_HiBiT, luminescence after 6 hours. In short, it runs like this: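 Degradation readout is luminescence at 6 h, with DC50 taken as the concentration giving 50% GSPT1 loss. Compound titrations were added together with endurazine (0.5× final) to HEK293 LgBiT/GSPT1-HiBiT cells seeded the day before and kept at 37 °C.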
For orientation: HiBiT is a short tag that completes a luciferase, so light tracks the accessible tagged protein.

In a further experiment the test system is HeLa KRas G12C cells. The experiment is described as follows: Cellular growth inhibition assay (CTG), HeLa KRas G12C cells. The experiment is classed as cell-based. The note with it: Homo sapiens, CellTiter-Glo 2.0, day-5. The procedure: Cells were seeded in Poly-D-lysine-treated 384-well white plates, with 25 μL cell suspension at 250 cells/well for continuous treatments, and 1000 cells/well for washout treatments. Plates were spun at 300×g for 3 minutes, and cells were cultured at 37° C. with 5% CO2 in a humidified tissue culture incubator.
After 24 hours, the test compounds were diluted with cell culture medium in 96 deep well plates. DMSO was used as a negative control. A 25 μL aliquot of compound-containing medium was added in each well, at a final top concentration of 10 μM or 30 μM test compound, with 3-fold dilutions. For washout assays, after 4 hours, cell medium with compound was removed, and the cells were washed with 75p L fresh medium. Plates were then spun at 300×g for 3 minutes and replaced with 50 μL fresh medium in each well. Plates were then spun at 300×g for 3 minutes again and cultured at 37° C. with 5% CO2.
At day-0 and day-5 of compound treatments, cell viability was quantified with CellTiter-Glo 2.0 (Promega). After equilibrating cell plates at room temperature for 30 minutes, 25 μL CellTiter-Glo 2.0 reagent was dispensed into each well (on top of 50 μL of cell culture). Plates were mixed on a shaker for 2 minutes at 500 rpm, followed by a 10-minute incubation at room temperature. Luminescence readings were measured with an EnVision Plate Reader. Data was normalized to DMSO treated day-0 cell wells. A four-parameter non-linear regression curve fit was applied to dose-response data in Prism to determine the half maximal growth inhibitory concentration (GI50) of each compound.
On the technique in general: ATP-based viability assays read luminescence as a measure of living cells.

Each structure is given as a SMILES string.

Our source for the DC50 and GI50 values is patent US20240238424A1, “HETEROBIFUNCTIONAL COMPOUNDS AND METHODS OF TREATING DISEASE” (Halda Therapeutics OpCo, Inc., priority 2021, published 2024).

T1 sequence (P15170 whole entry): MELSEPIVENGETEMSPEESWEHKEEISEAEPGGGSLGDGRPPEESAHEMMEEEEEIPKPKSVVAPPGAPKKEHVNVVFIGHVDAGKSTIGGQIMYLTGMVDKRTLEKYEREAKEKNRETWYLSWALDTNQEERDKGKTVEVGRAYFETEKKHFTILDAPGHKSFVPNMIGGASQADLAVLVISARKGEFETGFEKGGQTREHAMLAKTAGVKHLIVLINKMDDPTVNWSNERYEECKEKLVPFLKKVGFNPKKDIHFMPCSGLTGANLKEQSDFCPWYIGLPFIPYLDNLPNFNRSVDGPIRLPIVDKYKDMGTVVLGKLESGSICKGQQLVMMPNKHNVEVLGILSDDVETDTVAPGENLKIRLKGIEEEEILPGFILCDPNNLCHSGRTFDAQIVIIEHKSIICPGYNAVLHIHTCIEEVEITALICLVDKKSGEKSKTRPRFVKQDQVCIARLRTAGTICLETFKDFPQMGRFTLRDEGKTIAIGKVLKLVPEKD
T1 sequence (Q96SW2 whole entry): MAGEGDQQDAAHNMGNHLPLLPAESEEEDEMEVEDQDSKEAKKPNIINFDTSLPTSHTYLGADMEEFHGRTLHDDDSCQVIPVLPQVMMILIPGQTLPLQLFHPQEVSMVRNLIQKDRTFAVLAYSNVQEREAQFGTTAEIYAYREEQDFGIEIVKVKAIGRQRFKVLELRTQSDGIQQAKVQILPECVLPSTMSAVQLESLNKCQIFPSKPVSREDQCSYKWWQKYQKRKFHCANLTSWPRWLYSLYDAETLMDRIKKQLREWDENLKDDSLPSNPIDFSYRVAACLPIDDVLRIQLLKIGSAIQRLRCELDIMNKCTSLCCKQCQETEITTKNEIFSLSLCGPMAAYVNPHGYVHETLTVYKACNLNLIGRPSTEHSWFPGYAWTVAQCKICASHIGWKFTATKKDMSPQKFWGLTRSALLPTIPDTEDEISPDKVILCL
T1 sequence (Q16531 whole entry partner): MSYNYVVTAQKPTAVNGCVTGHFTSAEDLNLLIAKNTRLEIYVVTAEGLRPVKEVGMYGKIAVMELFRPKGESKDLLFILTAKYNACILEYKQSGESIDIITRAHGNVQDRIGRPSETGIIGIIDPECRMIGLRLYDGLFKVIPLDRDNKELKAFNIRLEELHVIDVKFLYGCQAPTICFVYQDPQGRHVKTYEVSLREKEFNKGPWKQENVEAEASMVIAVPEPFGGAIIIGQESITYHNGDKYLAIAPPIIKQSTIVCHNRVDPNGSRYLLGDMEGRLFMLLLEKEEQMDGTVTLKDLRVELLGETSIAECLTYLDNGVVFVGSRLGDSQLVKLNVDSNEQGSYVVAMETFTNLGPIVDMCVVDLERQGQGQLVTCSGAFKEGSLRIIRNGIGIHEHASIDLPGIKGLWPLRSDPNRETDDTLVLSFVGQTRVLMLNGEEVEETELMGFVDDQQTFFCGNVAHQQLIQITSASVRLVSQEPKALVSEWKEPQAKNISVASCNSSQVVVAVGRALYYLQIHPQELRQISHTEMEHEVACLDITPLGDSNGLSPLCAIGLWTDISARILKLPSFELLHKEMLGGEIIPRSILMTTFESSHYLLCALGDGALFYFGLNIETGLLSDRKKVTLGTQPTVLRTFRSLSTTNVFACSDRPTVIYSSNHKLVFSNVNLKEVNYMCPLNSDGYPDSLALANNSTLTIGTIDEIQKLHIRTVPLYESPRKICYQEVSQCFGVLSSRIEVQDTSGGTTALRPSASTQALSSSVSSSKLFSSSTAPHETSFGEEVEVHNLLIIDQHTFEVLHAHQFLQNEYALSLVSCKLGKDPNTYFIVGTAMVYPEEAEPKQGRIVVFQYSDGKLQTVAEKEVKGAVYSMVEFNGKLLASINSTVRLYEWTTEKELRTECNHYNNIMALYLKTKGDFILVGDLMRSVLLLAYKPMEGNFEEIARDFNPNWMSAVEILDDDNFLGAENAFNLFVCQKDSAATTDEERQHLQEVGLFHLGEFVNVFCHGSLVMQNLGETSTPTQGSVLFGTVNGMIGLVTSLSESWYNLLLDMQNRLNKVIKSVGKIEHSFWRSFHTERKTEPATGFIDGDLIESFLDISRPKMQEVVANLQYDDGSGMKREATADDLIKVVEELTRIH

On GSPT1, `C=C(F)C(=O)N1CCN(c2nc(OC[C@@H]3CCCN3CCCCCCCCNc3cccc4c3CN(C3CCC(=O)NC3=O)C4=O)nc3c2CCN(c2cccc4cccc(Cl)c24)C3)C[C@@H]1CC#N` (stereo partly drawn) [Compound I-3, 2-((2S)-4-(7-(8-chloronaphthalen-1-yl)-2-(((2S)-1-(8-((2-(2,6-dioxopiperidin-3-yl)-1-oxoisoindolin-4-yl)amino)octyl)pyrrolidin-2-yl)methoxy)-5,6,7,8-tetrahydropyrido[3,4-d]pyrimidin-4-yl)-1-(2-fluoroacryloyl)piperazin-2-yl)acetonitrile] yielded a half-maximal degradation concentration (DC50) of over 10 µM. For the same molecule, the GI50 in the experiment on HeLa KRas G12C cells was 3 to 10 µM.
For the molecule `C=C(F)C(=O)N1CCN(c2nc(OC[C@@H]3CCCN3CCCCCCCCc3cccc4c3CN(C3CCC(=O)NC3=O)C4=O)nc3c2CCN(c2cccc4cccc(Cl)c24)C3)C[C@@H]1CC#N` (stereo partly drawn) [Compound I-4, 2-[(2S)-4-[7-(8-chloro-1-naphthyl)-2-[[(2S)-1-[8-[2-(2,6-dioxo-3-piperidyl)-1-oxo-isoindolin-4-yl]octyl]pyrrolidin-2-yl]methoxy]-6,8-dihydro-5H-pyrido[3,4-d]pyrimidin-4-yl]-1-(2-fluoroprop-2-enoyl)piperazin-2-yl]acetonitrile], the 50% degradation concentration (DC50) on GSPT1 is over 10 µM. In the experiment with HeLa KRas G12C cells, this molecule had a GI50 of 3 to 10 µM.
The corresponding values for `C=CC(=O)N1CCN(c2nc(NCCCCCCCCc3cc(Cl)cc(NC(=O)NCc4ccc5c(c4)CN(C4CCC(=O)NC4=O)C5=O)c3)nc3c(F)c(-c4cc(O)cc5ccccc45)c(Cl)cc23)CC1` (centres unmarked) [Compound I-5, 1-[3-chloro-5-[8-[[6-chloro-8-fluoro-7-(3-hydroxy-1-naphthyl)-4-(4-prop-2-enoylpiperazin-1-yl)quinazolin-2-yl]amino]octyl]phenyl]-3-[[2-(2,6-dioxo-3-piperidyl)-1-oxo-isoindolin-5-yl]methyl]urea] are under 0.25 µM and over 10 µM.
For the molecule `C=CC(=O)N1CCN(c2nc(NCCCCCCCCNc3cccc4c3CN(C3CCC(=O)NC3=O)C4=O)nc3c(F)c(-c4cc(O)cc5ccccc45)c(Cl)cc23)CC1` (centres unmarked) [Compound I-6, 3-(4-((8-((4-(4-acryloylpiperazin-1-yl)-6-chloro-8-fluoro-7-(3-hydroxynaphthalen-1-yl)quinazolin-2-yl)amino)octyl)-amino)-1-oxoisoindolin-2-yl)piperidine-2,6-dione], the DC50 on GSPT1 is over 10 µM. The molecule also returned a GI50 in the experiment on HeLa KRas G12C cells of over 10 µM.
Turning to `C=CC(=O)N1CCN(c2nc(NCCOCCOCCOCCOCCOCCOCCc3cc(Cl)cc(NC(=O)NCc4ccc5c(c4)CN(C4CCC(=O)NC4=O)C5=O)c3)nc3c(F)c(-c4cc(O)cc5ccccc45)c(Cl)cc23)CC1` (centres unmarked) [Compound I-7, 1-[3-chloro-5-[2-[2-[2-[2-[2-[2-[2-[[6-chloro-8-fluoro-7-(3-hydroxy-1-naphthyl)-4-(4-prop-2-enoylpiperazin-1-yl)quinazolin-2-yl]amino]ethoxy]ethoxy]ethoxy]ethoxy]ethoxy]ethoxy]ethyl]phenyl]-3-[[2-(2,6-dioxo-3-piperidyl)-1-oxo-isoindolin-5-yl]methyl]urea], the half-maximal degradation concentration (DC50) at GSPT1 was 5 to 10 µM. This molecule showed a 50% growth inhibitory concentration (GI50) in the experiment on HeLa KRas G12C cells of over 10 µM.
The molecule `C=CC(=O)N1CCN(c2nc(NCCCCCCCCc3cccc4c3CN(C3CCC(=O)NC3=O)C4=O)nc3c(F)c(-c4cc(O)cc5ccccc45)c(Cl)cc23)CC1` (centres unmarked) [Compound I-8, 3-(4-(8-((4-(4-acryloylpiperazin-1-yl)-6-chloro-8-fluoro-7-(3-hydroxynaphthalen-1-yl)quinazolin-2-yl)amino)octyl)-1-oxoisoindolin-2-yl)piperidine-2,6-dione] gave a 50% degradation concentration (DC50) at GSPT1 of over 10 µM. The concentration for 50% growth inhibition (GI50) in the experiment with HeLa KRas G12C cells is over 10 µM.
`C=C(F)C(=O)N1CCN(c2nc(OC[C@@H]3CCCN3CCOCCOCCOCCOCCOCCOCCOCCOCCOc3cc(Cl)cc(NC(=O)NCc4ccc5c(c4)CN(C4CCC(=O)NC4=O)C5=O)c3)nc3c2CCN(c2cccc4cccc(Cl)c24)C3)C[C@@H]1CC#N` (stereo partly drawn) [Compound I-9, 1-[3-chloro-5-[2-[2-[2-[2-[2-[2-[2-[2-[2-[(2S)-2-[[7-(8-chloro-1-naphthyl)-4-[(3S)-3-(cyanomethyl)-4-(2-fluoroprop-2-enoyl)piperazin-1-yl]-6,8-dihydro-5H-pyrido[3,4-d]pyrimidin-2-yl]oxymethyl]pyrrolidin-1-yl]ethoxy]ethoxy]ethoxy]ethoxy]ethoxy]ethoxy]ethoxy]ethoxy]ethoxy]phenyl]-3-[[2-(2,6-dioxo-3-piperidyl)-1-oxo-isoindolin-5-yl]methyl]urea] had a DC50 on GSPT1 of over 10 µM. The molecule further had a GI50 in the experiment with HeLa KRas G12C cells of over 10 µM.
For `C=C(F)C(=O)N1CCN(c2nc(OC[C@@H]3CCCN3CCOCCOCCOCCOCCOCCOCCOCCOCCOCCOCCOc3cc(Cl)cc(NC(=O)NCc4ccc5c(c4)CN(C4CCC(=O)NC4=O)C5=O)c3)nc3c2CCN(c2cccc4cccc(Cl)c24)C3)C[C@@H]1CC#N` (stereo partly drawn) [Compound I-10, 1-[3-chloro-5-[2-[2-[2-[2-[2-[2-[2-[2-[2-[2-[2-[(2S)-2-[[7-(8-chloro-1-naphthyl)-4-[(3S)-3-(cyanomethyl)-4-(2-fluoroprop-2-enoyl)piperazin-1-yl]-6,8-dihydro-5H-pyrido[3,4-d]pyrimidin-2-yl]oxymethyl]pyrrolidin-1-yl]ethoxy]ethoxy]ethoxy]ethoxy]ethoxy]ethoxy]ethoxy]ethoxy]ethoxy]ethoxy]ethoxy]phenyl]-3-[[2-(2,6-dioxo-3-piperidyl)-1-oxo-isoindolin-5-yl]methyl]urea], the DC50 at GSPT1 fell in the range of 5 to 10 µM. The molecule also showed a GI50 in the experiment with HeLa KRas G12C cells of 3 to 10 µM.
`C=C(F)C(=O)N1CCN(c2nc(OC[C@@H]3CCCN3CCOCCOCCOCCOCCOCCOCCOCCOCCc3cc(Cl)cc(NC(=O)NCc4ccc5c(c4)CN(C4CCC(=O)NC4=O)C5=O)c3)nc3c2CCN(c2cccc4cccc(Cl)c24)C3)C[C@@H]1CC#N` (stereo partly drawn) [Compound I-11, 1-[3-chloro-5-[2-[2-[2-[2-[2-[2-[2-[2-[2-[(2S)-2-[[7-(8-chloro-1-naphthyl)-4-[(3S)-3-(cyanomethyl)-4-(2-fluoroprop-2-enoyl)piperazin-1-yl]-6,8-dihydro-5H-pyrido[3,4-d]pyrimidin-2-yl]oxymethyl]pyrrolidin-1-yl]ethoxy]ethoxy]ethoxy]ethoxy]ethoxy]ethoxy]ethoxy]ethoxy]ethyl]phenyl]-3-[[2-(2,6-dioxo-3-piperidyl)-1-oxo-isoindolin-5-yl]methyl]urea] had a DC50 at GSPT1 of over 10 µM. In the experiment with HeLa KRas G12C cells, this molecule showed a concentration for 50% growth inhibition (GI50) of over 10 µM.
As for `C=C(F)C(=O)N1CCN(c2nc(OC[C@@H]3CCCN3CCOCCOCCOCCOCCOCCOCCOCCOCCOCCOCCc3cc(Cl)cc(NC(=O)NCc4ccc5c(c4)CN(C4CCC(=O)NC4=O)C5=O)c3)nc3c2CCN(c2cccc4cccc(Cl)c24)C3)C[C@@H]1CC#N` (stereo partly drawn) [Compound I-12, 1-[3-chloro-5-[2-[2-[2-[2-[2-[2-[2-[2-[2-[2-[2-[(2S)-2-[[7-(8-chloro-1-naphthyl)-4-[(3S)-3-(cyanomethyl)-4-(2-fluoroprop-2-enoyl)piperazin-1-yl]-6,8-dihydro-5H-pyrido[3,4-d]pyrimidin-2-yl]oxymethyl]pyrrolidin-1-yl]ethoxy]ethoxy]ethoxy]ethoxy]ethoxy]ethoxy]ethoxy]ethoxy]ethoxy]ethoxy]ethyl]phenyl]-3-[[2-(2,6-dioxo-3-piperidyl)-1-oxo-isoindolin-5-yl]methyl]urea], the 50% degradation concentration (DC50) at GSPT1 lay in the range of 5 to 10 µM. Also, the GI50 with HeLa KRas G12C cells lay within 3 to 10 µM.

Broadly, the DC50 is the concentration giving 50% degradation. A low value points to degradation at low concentration. One may read the GI50 as the concentration that inhibits growth by half. Low readings indicate more potent growth inhibition, high ones less potent growth inhibition.
